Patent US20260184708A1, “PYRIDAZINONES AND METHODS OF USE THEREOF” (GFB (ABC), LLC, priority 2017, published 2026)
Where two headings read alike, the source gives them in different places.

Molecular target: T1, TRPC5 (Homo sapiens, UniProt Q9UL62)
T1 construct: expressed in transfected cells; host or cells: HEK 293
T1 sequence (Q9UL62 1-973): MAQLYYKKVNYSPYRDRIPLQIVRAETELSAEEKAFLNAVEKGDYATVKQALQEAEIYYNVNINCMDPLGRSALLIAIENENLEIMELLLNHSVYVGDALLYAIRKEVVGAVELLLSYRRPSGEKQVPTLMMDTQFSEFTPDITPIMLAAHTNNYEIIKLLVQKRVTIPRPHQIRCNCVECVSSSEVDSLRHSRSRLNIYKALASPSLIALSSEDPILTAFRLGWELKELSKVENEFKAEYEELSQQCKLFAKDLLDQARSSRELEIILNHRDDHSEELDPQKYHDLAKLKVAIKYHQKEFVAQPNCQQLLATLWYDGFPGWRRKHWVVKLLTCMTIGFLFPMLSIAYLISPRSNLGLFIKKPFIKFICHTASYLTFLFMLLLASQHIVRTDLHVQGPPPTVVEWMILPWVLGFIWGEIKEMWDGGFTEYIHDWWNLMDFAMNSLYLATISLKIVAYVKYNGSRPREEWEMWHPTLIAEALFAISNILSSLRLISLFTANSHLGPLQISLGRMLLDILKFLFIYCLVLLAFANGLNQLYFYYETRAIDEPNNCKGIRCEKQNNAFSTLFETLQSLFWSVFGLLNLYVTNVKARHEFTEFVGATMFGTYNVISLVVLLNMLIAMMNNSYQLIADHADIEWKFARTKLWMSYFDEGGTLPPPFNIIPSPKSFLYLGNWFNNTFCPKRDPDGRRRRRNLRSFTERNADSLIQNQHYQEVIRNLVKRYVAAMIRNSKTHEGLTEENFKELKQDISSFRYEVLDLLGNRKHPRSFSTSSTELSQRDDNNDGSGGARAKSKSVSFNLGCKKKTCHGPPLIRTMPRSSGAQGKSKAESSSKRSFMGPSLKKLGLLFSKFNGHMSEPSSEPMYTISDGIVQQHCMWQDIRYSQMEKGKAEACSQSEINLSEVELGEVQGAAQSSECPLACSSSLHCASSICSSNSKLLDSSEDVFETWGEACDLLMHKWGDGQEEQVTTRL
Assay: TRPC5 automated patch clamp assay (Qpatch), current block after rosiglitazone stimulation
Type: cell-based
Details: HEK293 cells overexpressing TRPC5
Procedure: HEK 293 cells expressing human TRPC5 were harvested, re-suspended in serum free medium, and added to the automated platform and used within 2-3 hours. Internal and external physiological solutions were freshly prepared prior to the assay. The external solution contained: 145 mM NaCl, 4 mM KCl, 2 mM CaCl2), 1 mM MgCl2, 10 mM HEPES, 10 mM glucose, pH 7.4 with NaOH and 300 mOsm/L. The internal solution contained 120 mM L-aspartic acid, 120 mM CsOH·H2O, 20 mM CsCl, 2 mM MgCl2, 8.8 mM CaCl2), 10 mM EGTA, 10 mM HEPES, 10 mM Glucose, 0.1 mM GTP and 2 mM Na2ATP; pH 7.2 with CsOH and 290 mOsm/L. The free internal Ca2+ concentration was buffered to 1 μM.
The automated electrophysiological platform QPatch 16 from Sophion (Denmark) was used to carry out the compounds profiling. The series resistance and quality of seals were continuously monitored during the experiments. Data was analyzed using Sophion QPatch assay software 5.6 (Odense). IC50 values were calculated using a least squares regression algorithm (Hill equation).
To monitor the ion currents, a voltage ramp from −100 mV to +100 mV, over 300 ms, was applied every 10 seconds, from a holding potential of −60 mV.
After recording for a minimum of 60 seconds control period, Rosiglitazone (30 uM), was applied to activate the channel.

[1] = Table 5, rosiglitazone stimulation, 80 mV, read-out: TRPC5_QP_ XC50_80
[2] = Table 5, rosiglitazone stimulation, 100 mV, read-out: TRPC5_QP_ XC50_100
[3] = Table 4, rosiglitazone stimulation, 80 mV, read-out: TRPC5_QP_ XC50_80
[4] = Table 4, rosiglitazone stimulation, 100 mV, read-out: TRPC5_QP_ XC50_100
[5] = Table 3, rosiglitazone stimulation, 80 mV, read-out: TRPC5_QP_ XC50_80
[6] = Table 3, rosiglitazone stimulation, 100 mV, read-out: TRPC5_QP_ XC50_100
[7] = rosiglitazone stimulation, 80 mV, read-out: TRPC5_QP XC50_80
[8] = rosiglitazone stimulation, 100 mV, read-out: TRPC5_QP XC50_100

SMILES	IC50 [3] [µM]	IC50 [4] [µM]	IC50 [5] [µM]	IC50 [6] [µM]	also measured
COc1cc(F)ccc1CN1CCN(c2c(Cl)cn[nH]c2=O)CC1=O	–	–	–	–	IC50 [1]: 10 to 500 µM; IC50 [2]: 10 to 500 µM
O=C1CN(c2cn[nH]c(=O)c2Cl)CCN1Cc1ccc(-c2ccccc2)cc1	10 to 500	10 to 500	–	–	–
O=C1CN(c2cn[nH]c(=O)c2Cl)CCN1Cc1ccc(F)cc1Cl [drawing 682]	–	–	1 to 5	1 to 5	–
Cc1ccccc1CN1CC2CC(C1)N2c1cn[nH]c(=O)c1Br	–	–	–	–	IC50 [7]: 10 to 500 µM; IC50 [8]: 10 to 500 µM
O=C1CN(c2cn[nH]c(=O)c2Cl)CCN1Cc1ccc(Cl)cc1	–	–	–	–	IC50 [1]: 1 to 5 µM; IC50 [2]: 5 to 10 µM
O=C1CN(c2cn[nH]c(=O)c2Cl)CCN1Cc1ccc(Oc2ccccc2)cc1	10 to 500	10 to 500	–	–	–
Cc1ccccc1[C@H](C)N1CCN(c2cn[nH]c(=O)c2Cl)CC1=O [drawing 743]	1e-05 to 1	1e-05 to 1	–	–	–
O=c1[nH]ncc(N2CCN(Cc3ccccc3OC(F)(F)F)CC2)c1Cl	–	–	1 to 5	1 to 5	–
O=c1[nH]ncc(N2CCN(Cc3ccc(Cl)cc3F)CC2)c1Cl	–	–	5 to 10	10 to 500	–
Cc1ccccc1CN1CCN(c2cn[nH]c(=O)c2C#CC(C)C)CC1=O	–	–	10 to 500	10 to 500	–
O=C1CN(c2cn[nH]c(=O)c2Cl)CCN1Cc1ccc(C2CC2)cc1	–	–	–	–	IC50 [1]: 10 to 500 µM; IC50 [2]: 10 to 500 µM
CCCc1c(N2CCN(Cc3ccccc3C)C(=O)C2)cn[nH]c1=O	10 to 500	10 to 500	–	–	–
Cc1cc(F)ccc1CN1CCN(c2c(Cl)c(C)n[nH]c2=O)CC1=O	10 to 500	10 to 500	–	–	–
Cc1n[nH]c(=O)c(Cl)c1N1CCN(Cc2ccccc2OC(F)(F)F)C(=O)C1	–	–	–	–	IC50 [1]: 5 to 10 µM; IC50 [2]: 5 to 10 µM
Cc1ccccc1CN1CCC2(C1)CN(c1cn[nH]c(=O)c1Br)C2	–	–	10 to 500	10 to 500	–
O=c1[nH]ncc(N2CCN(Cc3ccc(F)cc3Cl)CC2)c1Cl	–	–	1 to 5	5 to 10	–
Cc1ccccc1CN1CCN(c2c(Br)cn[nH]c2=O)CC1	–	–	–	–	IC50 [7]: 1 to 5 µM; IC50 [8]: 1 to 5 µM
O=C1CN(c2cn[nH]c(=O)c2Cl)CCN1Cc1ccc(Cl)cn1	10 to 500	10 to 500	–	–	–
N#Cc1c(N2CCc3c(nnn3Cc3ccccc3C(F)(F)F)C2)cn[nH]c1=O [drawing 891]	–	–	–	–	IC50 (Table 6, read-out: TRPC5-QPatch IC50): 1 to 5 µM
CC(c1ccccc1)n1cnc2c1CCN(c1cn[nH]c(=O)c1Cl)C2 (centres unmarked)	–	–	–	–	IC50 [1]: 1 to 5 µM; IC50 [2]: 1 to 5 µM
C[C@@H](c1ccccc1)N1CCN(c2cn[nH]c(=O)c2Cl)CC1	5 to 10	1 to 5	–	–	–
Cc1ccncc1CN1CCN(c2cn[nH]c(=O)c2Cl)CC1	5 to 10	5 to 10	–	–	–
Cc1cc(F)ccc1CN1CCN(c2cn[nH]c(=O)c2Br)CC1=O	–	–	1e-05 to 1	1 to 5	–
O=c1[nH]ncc(N2CCCN(Cc3ccccc3)CC2)c1Br	–	–	10 to 500	10 to 500	–
C=Cc1n[nH]c(=O)c(N2CCN(Cc3ccc(F)cc3C)CC2)c1Cl	–	–	–	–	IC50 [1]: 10 to 500 µM; IC50 [2]: 10 to 500 µM
O=c1[nH]ncc(N2CCN(Cc3c(F)cccc3F)CC2)c1Cl	–	–	1 to 5	1 to 5	–
O=c1[nH]ncc(Cl)c1N1CCN(Cc2ccccc2C(F)(F)F)CC1	5 to 10	5 to 10	–	–	–
Cc1n[nH]c(=O)c(Cl)c1N1CCN(Cc2ccc(F)cc2C(F)(F)F)C(=O)C1	–	–	–	–	IC50 [1]: 5 to 10 µM; IC50 [2]: 5 to 10 µM
Cn1nccc1CN1CCN(c2cn[nH]c(=O)c2Br)CC1	–	–	5 to 10	5 to 10	–
Cc1ccccc1Cn1cnc2c1CN(c1cn[nH]c(=O)c1Cl)CC2	–	–	–	–	IC50 [1]: 10 to 500 µM; IC50 [2]: 10 to 500 µM
